Experimental data published in patent US20250154198A1, “PEPTIDE INHIBITORS OF INTERLEUKIN-23 RECEPTOR” (Zealand Pharma A/S, priority 2021, published 2025).
Like-named read-outs stand apart in the source and are kept apart here. One block for each compound: values may come before it. *1 amine or outer side, *2 acyl side, *3 side chain or, on linkers, in order; H or OH if unused. Where a SMILES comes first, the peptide text is derived from it. Bridges are numbered along the chain shown (N, C = ends). [ ]: non-standard residue; d: D form. Trp(7-Me) = Cc1cccc2c(C[C@H](N)C(=O)O)c[nH]c12; 2Nal = N[C@@H](Cc1ccc2ccccc2c1)C(=O)O; AEF = NCCOc1ccc(C[C@H](N)C(=O)O)cc1; X20 = O=C(c1ccc(CCN[*:1])cc1)[*:2]; X24 = O=C(CCc1ccc(N[*:1])cc1)[*:2]; X1 = O=C(Cc1ccc(CN[*:1])cc1)[*:2]; αMeL = CC(C)C[C@](C)(N)C(=O)O; CH2COCH2 = O=C(C[*:1])C[*:2]; 3Amb = NCc1cccc(C(=O)O)c1; 4Amb = NCc1ccc(C(=O)O)cc1; Orn = NCCC[C@H](N)C(=O)O; Dab = NCC[C@H](N)C(=O)O

Molecular target: T1, human IL-23R (Homo sapiens, UniProt Q5VWK5)
T1 construct: UniProtKB—Q5VWK5, amino acids 22-629; secretion signal of the plasmid (Promega N1371); expressed in transfected cells
T1 sequence (Q5VWK5 22-629): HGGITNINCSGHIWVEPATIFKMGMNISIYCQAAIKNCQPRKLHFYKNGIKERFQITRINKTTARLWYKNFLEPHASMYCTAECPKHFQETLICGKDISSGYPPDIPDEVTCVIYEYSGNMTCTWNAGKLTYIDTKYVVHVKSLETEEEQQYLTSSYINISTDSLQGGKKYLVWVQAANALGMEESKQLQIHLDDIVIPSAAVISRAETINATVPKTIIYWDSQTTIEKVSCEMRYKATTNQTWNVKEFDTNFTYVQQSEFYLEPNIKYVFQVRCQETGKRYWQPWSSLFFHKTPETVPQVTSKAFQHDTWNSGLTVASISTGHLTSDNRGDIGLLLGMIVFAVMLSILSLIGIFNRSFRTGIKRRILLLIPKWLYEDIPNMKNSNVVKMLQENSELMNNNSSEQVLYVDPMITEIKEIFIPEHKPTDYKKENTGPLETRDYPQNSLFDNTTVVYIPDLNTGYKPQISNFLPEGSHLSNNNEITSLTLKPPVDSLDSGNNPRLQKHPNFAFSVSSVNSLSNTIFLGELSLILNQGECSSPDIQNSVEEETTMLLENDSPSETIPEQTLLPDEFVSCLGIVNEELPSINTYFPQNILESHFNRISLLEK
Experiment: Binding assay (NanoBRET displacement of fluorophore-labelled reference compound) for estimating binding affinity to human IL-23R
Text: Binding Assay for Estimating Binding Affinity of Compounds to Human IL-23R
The compound binding affinity for IL-23R was estimated by the ability of compounds to displace a fluorophore-labelled reference compound from the human IL-23R. The assay principle relies on Bioluminescence Resonance Energy Transfer (BRET) between a fluorophore-labelled reference compound binding to the IL-23R part of a fusion protein consisting of the IL-23R fused to a Nanoluc luciferase enzyme (Nanoluc). The Nanoluc is placed in the N-terminus in close proximity to the binding domain of the ligand. Upon close proximity between the fluorophore of the fluorophore-labelled compound and the Nanoluc of the fusion protein, bioluminescence energy generated from conversion of a Nanoluc substrate, is transferred to the fluorophore resulting in an increase in BRET. In presence of an unlabelled compound, the unlabelled compound displaces the fluorophore-labelled peptide from its binding site resulting in a decrease in BRET. The concentration for which half of the fluorophore-labelled peptide is displaced by the unlabelled compound depends on the affinity of the compound for the IL-23R, and is termed the IC50 concentration. An estimated affinity (K) of the unlabelled compound for the IL-23R may be calculated using the Cheng-Prussov equation, which takes into account the concentration of the fluorophore-labelled compound used, and the affinity of the fluorophore-labelled compound for IL-23R.
The plasmid also contained a gene to confer resistance for the antibiotic hygromycin. A cell line stably expressing the Nluc-IL23R fusion protein was generated by transfection of HEK293 cells with the expression plasmid and selected with hygromycin for 3 weeks in Growth medium consisting of DMEM w/Glutamax-I containing, 10% V/V FBS, 1% V/V P/S, 1 mM Sodium Pyruvate, and 1×NEAA, and 0.3 mg/mL hygromycin. The remaining cells were propagated and considered a stable expressing Nluc-IL23R fusion protein pool clone.
Cells expressing the Nluc-IL23R fusion protein were expanded in Growth medium and membranes prepared by homogenization of a cell pellet from 18 T175 flasks (4° C. in subsequent steps). The cell pellet was lysed Tris 10 mM, 7.5, 1 mM EDTA and protease inhibitors (Complete, Roche) and homogenized using a 15 mL glass-dounce by 50 strokes. The homogenate was spun at spin @1500 rpm for 10 min, the supernatant transferred to SV-34 tubes and spun at 40000 g for 20 min at 4° C. to pellet the crude membranes. The supernatant was then removed, the pellet resuspended in 5 mL buffer containing 50 mM HEPES pH 7.4, 5 mM EGTA, and 5 mM MgCl2, and homogenized. Aliquots of the resuspended and homogenized membranes containing the Nluc-IL23R fusion protein were stored at −80° C. until use.
The plate was sealed with light impermeable plate seals, and incubated on a orbital shaker 400 rpm for 2 hours at room temperature. To determine the BRET ratio, the plate seal was removed and 25 μL of the Nanoluc substrate (Promega N1572) diluted 1:500 was added to each well and incubated for 1-2 minutes on an orbital shaker at 400 rpm. […] The BRET ratio was calculated as the fluorescence from the TAMRA/nanoluc bioluminescence. The IC50 for each compound was determined by computer-aided curve fitting using a 4-parameter logistic (4PL) non-linear model.

[1] = Table 3-1, read-out: Ki hIL-23R
[2] = Table 2-10b, read-out: Ki IL-23R

Structure (SMILES): CC(C)C[C@]1(C)NC(=O)[C@H](Cc2c[nH]c3ccccc23)NC(=O)[C@H](Cc2c[nH]c3ccccc23)NC(=O)[C@@H]2CSCC(=O)CSC[C@H](NC(=O)[C@H]([C@@H](C)O)NC(=O)[C@@H](NC(=O)CN)CSCC(=O)CSC[C@@H](C(=O)N[C@@H](CO)C(N)=O)NC1=O)C(=O)N[C@@H](Cc1c[nH]c3ccccc13)C(=O)N[C@@H](CCC(=O)O)C(=O)N2 (single isomer, unassigned) [I5 (isomer 3), H-GC(1a)TC(2a)WEC(2a)WW[2-Me-Leu]C(1a)S-[NH2], reference compound]
potency for IL-23R (in words) (in comparison with Protagonist's Compound C): lower potency

Structure (SMILES): CC(C)C[C@]1(C)NC(=O)[C@H](Cc2ccc3ccccc3c2)NC(=O)[C@H](Cc2ccc(OCCN)cc2)NC(=O)[C@@H]2CSCC(=O)CSC[C@H](NC(=O)[C@H](CO)NC(=O)c3ccc(cc3)CNC(=O)CC[C@@H](C(=O)N[C@@H](CCCNC(=N)N)C(N)=O)NC1=O)C(=O)N[C@@H](Cc1c[nH]c3ccccc13)C(=O)N[C@@H](CCC(N)=O)C(=O)N2 [Compound 49, [(4-Aminomethyl)benzoyl](1c)*SC(2a)WQC(2a)[Y(2-aminoethoxy)][2-Nal][2-Me-Leu]E(1c)R-[NH2]] ([4Amb]SCWQC[AEF][2Nal][αMeL]ER-NH2; linker 3-6 via CH2COCH2; lactam N-10)
Ki [2]: 1.16 nM

Structure (SMILES): CC(C)C[C@]1(C)NC(=O)[C@H](Cc2ccc3ccccc3c2)NC(=O)[C@H](Cc2ccc(OCCN)cc2)NC(=O)[C@@H]2CSCC(=O)CSC[C@H](NC(=O)[C@H](CO)NC(=O)c3ccc(cc3)CCNC(=O)CC[C@@H](C(=O)N[C@@H](CCCNC(=N)N)C(N)=O)NC1=O)C(=O)N[C@@H](Cc1c[nH]c3ccccc13)C(=O)N[C@@H](CCC(N)=O)C(=O)N2 [Compound 50, [4-(2-Aminoethyl)benzoyl](1c)*SC(2a)WQC(2a)[Y(2-aminoethoxy)][2-Nal][2-Me-Leu]E(1c)R-[NH2]] ([X20]SCWQC[AEF][2Nal][αMeL]ER-NH2; linker 3-6 via CH2COCH2; lactam N-10)
Ki [2]: 5.09 nM
Ki [1]: 5.1 nM

Structure (SMILES): CC(C)C[C@@H]1NC(=O)[C@H](Cc2c[nH]c3ccccc23)NC(=O)[C@H](Cc2c[nH]c3ccccc23)NC(=O)[C@@H]2CSSC[C@H](NC(=O)[C@H](CO)NC(=O)[C@@H](NC(=O)[C@@H](N)CC(=O)O)CSCC(=O)CSC[C@@H](C(=O)N[C@@H](CCCNC(=N)N)C(N)=O)NC1=O)C(=O)N[C@@H](Cc1c[nH]c3ccccc13)C(=O)N[C@@H](CCC(N)=O)C(=O)N2 [Compound 53, H-DC(1a)SC(2b)WQC(2b)WWLC(1a)R-[NH2]]
Ki: > 1000 nM

Structure (SMILES): CC(=O)N[C@@H](CC(=O)O)C(=O)N[C@H]1CSCC(=O)CSC[C@@H](C(=O)N[C@@H](CCC(=O)O)C(=O)N[C@@H](CC(N)=O)C(=O)NCC(N)=O)NC(=O)[C@](C)(CC(C)C)NC(=O)[C@H](Cc2c[nH]c3ccccc23)NC(=O)[C@H](Cc2c[nH]c3ccccc23)NC(=O)[C@@H]2CSCC(=O)CSC[C@H](NC(=O)[C@H](CCC(N)=O)NC1=O)C(=O)N[C@@H](Cc1c[nH]c3ccccc13)C(=O)N[C@@H](CCC(N)=O)C(=O)N2 [Compound 64, [Ac]-DC(1a)QC(2a)WQC(2a)WW[2-Me-Leu]C(1a)ENG-[NH2]] (Ac-DCQCWQCWW[αMeL]CENG-NH2; linker 2-11, 4-7 via CH2COCH2)
Ki: > 1000 nM

Next, values leading:

Ki [1]: 3.32 nM
Structure (SMILES): CC(C)C[C@]1(C)NC(=O)[C@H](Cc2ccc3ccccc3c2)NC(=O)[C@H](Cc2ccc(OCCN)cc2)NC(=O)[C@@H]2CCC(=O)NCCC[C@H](NC(=O)[C@H](CO)NC(=O)c3cccc(c3)CNC(=O)CC[C@@H](C(=O)N[C@@H](CCCNC(=N)N)C(N)=O)NC1=O)C(=O)N[C@@H](Cc1c[nH]c3ccccc13)C(=O)N[C@@H](CCC(N)=O)C(=O)N2 (relative stereo) [Compound 68, [(3-Aminomethyl)benzoyl](1c)*S[Orn](2c)WQE(2c)[Y(2-aminoethoxy)][2-Nal][2-Me-Leu]E(1c)R-[NH2]]

Ki [2]: 2 nM
Structure (SMILES): CC(C)C[C@]1(C)NC(=O)[C@H](Cc2ccc3ccccc3c2)NC(=O)[C@H](Cc2ccc(OCCN)cc2)NC(=O)[C@@H]2CSCC(=O)CSC[C@H](NC(=O)[C@H](CO)NC(=O)CCc3ccc(cc3)NC(=O)CC[C@@H](C(=O)N[C@@H](CCCNC(=N)N)C(N)=O)NC1=O)C(=O)N[C@@H](Cc1c[nH]c3ccccc13)C(=O)N[C@@H](CCC(N)=O)C(=O)N2 [Compound 51, [3-(4-Aminophenyl)propanoyl](1c)*SC(2a)WQC(2a)[Y(2-aminoethoxy)][2-Nal][2-Me-Leu]E(1c)R-[NH2]] ([X24]SCWQC[AEF][2Nal][αMeL]ER-NH2; linker 3-6 via CH2COCH2; lactam N-10)

Ki (hIL-23R, Ki from IC50 by Cheng-Prusoff equation, read-out: Ki determined affinity): 0.057 nM
Structure (SMILES): CC(C)C[C@]1(C)NC(=O)[C@H](Cc2ccc3ccccc3c2)NC(=O)[C@H](Cc2ccc(OCCN)cc2)NC(=O)[C@@H]2CSCC(=O)CSC[C@H](NC(=O)[C@H](CO)NC(=O)Cc3ccc(cc3)CNC(=O)CC[C@@H](C(=O)N[C@@H](CCCNC(=N)N)C(N)=O)NC1=O)C(=O)N[C@@H](Cc1c[nH]c3ccccc13)C(=O)N[C@@H](CCC(N)=O)C(=O)N2 [Compound 52, [4-Aminomethyl-phenylacetyl](1c)*SC(2a)WQC(2a)[Y(2-aminoethoxy)][2-Nal][2-Me-Leu]E(1c)R-[NH2]] ([X1]SCWQC[AEF][2Nal][αMeL]ER-NH2; linker 3-6 via CH2COCH2; lactam N-10)

Ki [1]: 0.76 nM
Structure (SMILES): CC(C)C[C@]1(C)NC(=O)[C@H](Cc2ccc3ccccc3c2)NC(=O)[C@H](Cc2ccc(OCCN)cc2)NC(=O)[C@@H]2CCNC(=O)CC[C@H](NC(=O)[C@H](CO)NC(=O)c3cccc(c3)CNC(=O)CC[C@@H](C(=O)N[C@@H](CCCNC(=N)N)C(N)=O)NC1=O)C(=O)N[C@@H](Cc1c[nH]c3ccccc13)C(=O)N[C@@H](CCC(N)=O)C(=O)N2 [Compound 67, [(3-Aminomethyl)benzoyl](1c)*SE(2c)WQ[Dab](2c)[Y(2-aminoethoxy)][2-Nal][2-Me-Leu]E(1c)R-[NH2]] ([3Amb]SEWQ[Dab][AEF][2Nal][αMeL]ER-NH2; lactam 3-6, N-10)

Ki [1]: 2.76 nM
Structure (SMILES): CC(C)C[C@]1(C)NC(=O)[C@H](Cc2ccc3ccccc3c2)NC(=O)[C@H](Cc2ccc(OCCN)cc2)NC(=O)[C@@H]2CCCNC(=O)CC[C@H](NC(=O)[C@H](CO)NC(=O)c3cccc(c3)CNC(=O)CC[C@@H](C(=O)N[C@@H](CCCNC(=N)N)C(N)=O)NC1=O)C(=O)N[C@@H](Cc1c[nH]c3ccccc13)C(=O)N[C@@H](CCC(N)=O)C(=O)N2 [Compound 69, [(3-Aminomethyl)benzoyl](1c)*SE(2c)WQ[Orn](2c)[Y(2-aminoethoxy)][2-Nal][2-Me-Leu]E(1c)R-[NH2]] ([3Amb]SEWQ[Orn][AEF][2Nal][αMeL]ER-NH2; lactam 3-6, N-10)

Ki [1]: 0.485 nM
Structure (SMILES): Cc1cccc2c(C[C@@H]3NC(=O)[C@@H]4CSCC(=O)CSC[C@H](NC(=O)[C@H](CCC(N)=O)NC3=O)C(=O)N[C@@H](Cc3ccc(OCCN)cc3)C(=O)N[C@@H](Cc3ccc5ccccc5c3)C(=O)N[C@@](C)(CC(C)C)C(=O)N[C@H](C(=O)N[C@@H](CCCNC(=N)N)C(N)=O)CCC(=O)NCc3cccc(c3)C(=O)N[C@@H](CO)C(=O)N4)c[nH]c12 [Compound 70, [(3-Aminomethyl)benzoyl](1c)*SC(2a)[7-Me-Trp]QC(2a)[Y(2-aminoethoxy)][2-Nal][2-Me-Leu]E(1c)R-[NH2]] ([3Amb]SC[Trp(7-Me)]QC[AEF][2Nal][αMeL]ER-NH2; linker 3-6 via CH2COCH2; lactam N-10)
